The values that follow come from ChEMBL document CHEMBL1142909, “Synthesis and insecticidal activity of chromanone and chromone analogues of diacylhydrazines” (2007).

In one test the test system is Mythimna separata. Put plainly: Insecticidal activity against Mythimna separata at 500 mg/L relative to control. The format is functional.
With `CC(C)(C)N(NC(=O)c1ccccc1)C(=O)c1coc2ccc(Cl)cc2c1=O`, the Activity is listed as 58.3%.
Consider `CC1(C)CC(=O)c2cc(C(=O)NN(C(=O)c3ccccc3Cl)C(C)(C)C)ccc2O1`, for which the Activity is 66.7%.
With `CC1(C)CC(=O)c2cc(C(=O)NN(C(=O)c3cccc(Cl)c3)C(C)(C)C)ccc2O1`, the Activity is given as 13.3%.
`CC(C)(C)N(NC(=O)c1ccc(Cl)cc1)C(=O)c1coc2ccccc2c1=O`: the Activity is given as 66.7%.
`Cc1cccc(C(=O)NN(C(=O)c2coc3ccc(Cl)cc3c2=O)C(C)(C)C)c1` registered an Activity of 26.7%.
In turn, `CC1(C)CC(=O)c2cc(C(=O)NN(C(=O)c3ccc(Br)cc3)C(C)(C)C)ccc2O1` gave an Activity of 6.7%.
`Cc1ccc2occ(C(=O)N(NC(=O)c3cccc(Cl)c3)C(C)(C)C)c(=O)c2c1` returned an Activity of 26.7%.
`CC(C)(C)N(NC(=O)c1cccc(Cl)c1)C(=O)c1coc2ccccc2c1=O` displayed an Activity of 20%.
In turn, `CC1(C)CC(=O)c2cc(C(=O)NN(C(=O)c3ccc(F)cc3)C(C)(C)C)ccc2O1` gave an Activity of 0%.
For the molecule `Cc1ccccc1C(=O)N(NC(=O)c1ccc2c(c1)C(=O)CC(C)(C)O2)C(C)(C)C`, the Activity came to 40%.
The molecule `Cc1ccc2occ(C(=O)N(NC(=O)c3ccccc3)C(C)(C)C)c(=O)c2c1` showed an Activity of 60%.
As for `CC1(C)CC(=O)c2cc(C(=O)NN(C(=O)c3ccccc3)C(C)(C)C)ccc2O1`, the Activity was found to be 80%.
Molecule `CC1(C)CC(=O)c2cc(C(=O)NN(C(=O)c3ccc(Cl)cc3)C(C)(C)C)ccc2O1` showed an Activity of 84.2%.
`CC(C)(C)N(NC(=O)c1ccccc1)C(=O)c1coc2ccccc2c1=O`: the Activity is on record as 0%.
Regarding `Cc1cc(C)cc(C(=O)N(NC(=O)c2ccc3c(c2)C(=O)CC(C)(C)O3)C(C)(C)C)c1`, the Activity came out at 100%.
Molecule `CC(C)(C)N(NC(=O)c1cccc(Cl)c1)C(=O)c1coc2ccc(Cl)cc2c1=O` displayed an Activity of 73.3%.
Still for that read-out and setting: next, `CC1(C)CC(=O)c2cc(C(=O)NN(C(=O)c3ccccc3F)C(C)(C)C)ccc2O1`: 0%.

The test system of the next test is Tetranychus cinnabarinus. The test can be described thus: Insecticidal activity against Tetranychus cinnabarinus at 250 mg/L relative to control. The format is functional.
Take `CC(C)(C)N(NC(=O)c1ccccc1)C(=O)c1coc2ccc(Cl)cc2c1=O`: the Activity amounted to 0%.
`CC1(C)CC(=O)c2cc(C(=O)NN(C(=O)c3ccccc3Cl)C(C)(C)C)ccc2O1` gave an Activity of 58.3%.
On to `CC1(C)CC(=O)c2cc(C(=O)NN(C(=O)c3cccc(Cl)c3)C(C)(C)C)ccc2O1`, for which the Activity is given as 0%.
As to `CC(C)(C)N(NC(=O)c1ccc(Cl)cc1)C(=O)c1coc2ccccc2c1=O`, the Activity is listed as 0%.
With `Cc1cccc(C(=O)NN(C(=O)c2coc3ccc(Cl)cc3c2=O)C(C)(C)C)c1`, the Activity turned out to be 0%.
Take `CC1(C)CC(=O)c2cc(C(=O)NN(C(=O)c3ccc(Br)cc3)C(C)(C)C)ccc2O1`: the Activity is reported as 0%.
`Cc1ccc2occ(C(=O)N(NC(=O)c3cccc(Cl)c3)C(C)(C)C)c(=O)c2c1` came in with an Activity of 0%.
In the case of `CC(C)(C)N(NC(=O)c1cccc(Cl)c1)C(=O)c1coc2ccccc2c1=O`, the Activity turned out to be 0%.
Regarding `CC1(C)CC(=O)c2cc(C(=O)NN(C(=O)c3ccc(F)cc3)C(C)(C)C)ccc2O1`, the Activity came to 0%.
Molecule `Cc1ccccc1C(=O)N(NC(=O)c1ccc2c(c1)C(=O)CC(C)(C)O2)C(C)(C)C` returned an Activity of 0%.
`Cc1ccc2occ(C(=O)N(NC(=O)c3ccccc3)C(C)(C)C)c(=O)c2c1` displayed an Activity of 51.7%.
On the same count and under the same terms, the figure for `CC1(C)CC(=O)c2cc(C(=O)NN(C(=O)c3ccccc3)C(C)(C)C)ccc2O1` is 0%; for `CC1(C)CC(=O)c2cc(C(=O)NN(C(=O)c3ccc(Cl)cc3)C(C)(C)C)ccc2O1` it is 0%.
Same read-out and setting: next, `CC(C)(C)N(NC(=O)c1ccccc1)C(=O)c1coc2ccccc2c1=O`: 0%; `Cc1cc(C)cc(C(=O)N(NC(=O)c2ccc3c(c2)C(=O)CC(C)(C)O3)C(C)(C)C)c1`: 66.7%.
Molecule `CC(C)(C)N(NC(=O)c1cccc(Cl)c1)C(=O)c1coc2ccc(Cl)cc2c1=O` gave an Activity of 0%.
Molecule `CC1(C)CC(=O)c2cc(C(=O)NN(C(=O)c3ccccc3F)C(C)(C)C)ccc2O1` had an Activity of 76.7%.

In the next test the test system is Aphis. The test can be described thus: Insecticidal activity against Aphis medicagini at 250 mg/L relative to control. Type of test: functional.
`CC(C)(C)N(NC(=O)c1ccccc1)C(=O)c1coc2ccc(Cl)cc2c1=O` yielded an Activity of 0%.
In the case of `CC1(C)CC(=O)c2cc(C(=O)NN(C(=O)c3ccccc3Cl)C(C)(C)C)ccc2O1`, the Activity amounted to 8%.
Same read-out and setting: next, `CC1(C)CC(=O)c2cc(C(=O)NN(C(=O)c3cccc(Cl)c3)C(C)(C)C)ccc2O1`: 0%.
Same read-out and setting: the figure for `CC(C)(C)N(NC(=O)c1ccc(Cl)cc1)C(=O)c1coc2ccccc2c1=O` is 2%; for `Cc1cccc(C(=O)NN(C(=O)c2coc3ccc(Cl)cc3c2=O)C(C)(C)C)c1` it is 6%.
In turn, `CC1(C)CC(=O)c2cc(C(=O)NN(C(=O)c3ccc(Br)cc3)C(C)(C)C)ccc2O1` yielded an Activity of 4%.
The molecule `Cc1ccc2occ(C(=O)N(NC(=O)c3cccc(Cl)c3)C(C)(C)C)c(=O)c2c1` showed an Activity of 0%.
Still for that read-out and setting: next, `CC(C)(C)N(NC(=O)c1cccc(Cl)c1)C(=O)c1coc2ccccc2c1=O`: 4%.
As to `CC1(C)CC(=O)c2cc(C(=O)NN(C(=O)c3ccc(F)cc3)C(C)(C)C)ccc2O1`, the Activity turned out to be 4%.
For `Cc1ccccc1C(=O)N(NC(=O)c1ccc2c(c1)C(=O)CC(C)(C)O2)C(C)(C)C`, the Activity was determined as 0%.
The same measure, in the same setting: next, `Cc1ccc2occ(C(=O)N(NC(=O)c3ccccc3)C(C)(C)C)c(=O)c2c1`: 0%; `CC1(C)CC(=O)c2cc(C(=O)NN(C(=O)c3ccccc3)C(C)(C)C)ccc2O1`: 8%; `CC1(C)CC(=O)c2cc(C(=O)NN(C(=O)c3ccc(Cl)cc3)C(C)(C)C)ccc2O1`: 4.2%.
Molecule `CC(C)(C)N(NC(=O)c1ccccc1)C(=O)c1coc2ccccc2c1=O` returned an Activity of 21.1%.
The molecule `Cc1cc(C)cc(C(=O)N(NC(=O)c2ccc3c(c2)C(=O)CC(C)(C)O3)C(C)(C)C)c1` yielded an Activity of 8%.
On to `CC(C)(C)N(NC(=O)c1cccc(Cl)c1)C(=O)c1coc2ccc(Cl)cc2c1=O`, for which the Activity stood at 16%.
With `CC1(C)CC(=O)c2cc(C(=O)NN(C(=O)c3ccccc3F)C(C)(C)C)ccc2O1`, the Activity was found to be 4%.

A further test has as its system Nilaparvata lugens. Put plainly: Insecticidal activity against Nilaparvata lugens at 500 mg/L relative to control. Type of test: functional.
Turning to `CC(C)(C)N(NC(=O)c1ccccc1)C(=O)c1coc2ccc(Cl)cc2c1=O`, the Activity was determined as 18.2%.
Regarding `CC1(C)CC(=O)c2cc(C(=O)NN(C(=O)c3ccccc3Cl)C(C)(C)C)ccc2O1`, the Activity is 0%.
`CC1(C)CC(=O)c2cc(C(=O)NN(C(=O)c3cccc(Cl)c3)C(C)(C)C)ccc2O1`: the Activity is recorded as 0%.
Molecule `CC(C)(C)N(NC(=O)c1ccc(Cl)cc1)C(=O)c1coc2ccccc2c1=O` came in with an Activity of 0%.
Regarding `Cc1cccc(C(=O)NN(C(=O)c2coc3ccc(Cl)cc3c2=O)C(C)(C)C)c1`, the Activity turned out to be 7.1%.
As for `CC1(C)CC(=O)c2cc(C(=O)NN(C(=O)c3ccc(Br)cc3)C(C)(C)C)ccc2O1`, the Activity stood at 0%.
The molecule `Cc1ccc2occ(C(=O)N(NC(=O)c3cccc(Cl)c3)C(C)(C)C)c(=O)c2c1` came in with an Activity of 3.4%.
With `CC(C)(C)N(NC(=O)c1cccc(Cl)c1)C(=O)c1coc2ccccc2c1=O`, the Activity was 0%.
`CC1(C)CC(=O)c2cc(C(=O)NN(C(=O)c3ccc(F)cc3)C(C)(C)C)ccc2O1` showed an Activity of 0%.
On to `Cc1ccccc1C(=O)N(NC(=O)c1ccc2c(c1)C(=O)CC(C)(C)O2)C(C)(C)C`, for which the Activity was 3.4%.
As to `Cc1ccc2occ(C(=O)N(NC(=O)c3ccccc3)C(C)(C)C)c(=O)c2c1`, the Activity was 0%.
Take `CC1(C)CC(=O)c2cc(C(=O)NN(C(=O)c3ccccc3)C(C)(C)C)ccc2O1`: the Activity came out at 0%.
In turn, `CC1(C)CC(=O)c2cc(C(=O)NN(C(=O)c3ccc(Cl)cc3)C(C)(C)C)ccc2O1` registered an Activity of 0%.
The molecule `CC(C)(C)N(NC(=O)c1ccccc1)C(=O)c1coc2ccccc2c1=O` displayed an Activity of 7.1%.
`Cc1cc(C)cc(C(=O)N(NC(=O)c2ccc3c(c2)C(=O)CC(C)(C)O3)C(C)(C)C)c1`: the Activity came out at 7.1%.
`CC(C)(C)N(NC(=O)c1cccc(Cl)c1)C(=O)c1coc2ccc(Cl)cc2c1=O` displayed an Activity of 0%.
Turning to `CC1(C)CC(=O)c2cc(C(=O)NN(C(=O)c3ccccc3F)C(C)(C)C)ccc2O1`, the Activity is 3.4%.
